Assay results: ChEMBL document CHEMBL1139158, “Prenyloxyphenylpropanoids as novel lead compounds for the selective inhibition of geranylgeranyl transferase I” (Bioorg Med Chem Lett, 2007)

Key:
Homo sapiens = organism: Homo sapiens; experiment: Inhibition of GGTase 1 at 100 uM
[1] = tested on: Protein farnesyltransferase (Homo sapiens); experiment: Inhibition of FTase at 100 uM
[2] = Inhibition of GGTase 1; set-up: species or system Homo sapiens

inhibition (Homo sapiens) [%] | inhibition [1] [%] | IC50 [2] [µM] | Compound
0 | 2.4 | – | COc1cc(C(=O)O)ccc1OCC=C(C)C
0 | – | – | CC(C)=CCC/C(C)=C/COc1ccc(C(=O)O)cc1
3 | 5.5 | – | CCOC(=O)/C=C/c1ccc(OC/C=C(\C)CCC=C(C)C)c(OC)c1
31 | 9.3 | – | COc1cc(/C=C/C(=O)O)ccc1OCC=C(C)C
83.9 | 11 | 66 | COc1cc(/C=C/C(=O)O)ccc1OC/C=C(\C)CC/C=C(\C)CCC=C(C)C
93.5 | – | 28 | CC(C)=CCC/C(C)=C/CC/C(C)=C/COc1ccc(/C=C/C(=O)O)cc1
0 | 0 | – | COc1cc(C(=O)O)ccc1OC/C=C(\C)CCC=C(C)C
34.2 | 15.5 | – | COc1c(OC/C=C(\C)CCC=C(C)C)ccc2ccc(=O)oc12
